# Measurements taken from US20240158430A1, “NOVEL COMPOUND OR SALT THEREOF, AND ANTITUMOR ACTIVATOR CONTAINING SAME AS ACTIVE INGREDIENT” (AKITA UNIVERSITY, priority 2021, published 2024).
# Read-outs that look alike come from different tables or passages of the source.
# What was measured:
# [1] = system: malignant pleural mesothelioma cell line MSTO211H; experiment: Cell growth inhibitory activity, MSTO211H; type: cell-based; conditions: Table 8
# Experimental: (§1) The cell growth inhibitory activity against a colorectal cancer cell line HCT116 was measured. As an index of cell growth inhibitory activity, a concentration at which cell growth was inhibited by 50% as compared with a control (IC50) was used. The method is as follows. HCT116 was added to a 6-well plate by 5×10^4, compounds having various concentrations were added after 24 hours, and the number of cells was counted after 72 hours of culture. As the control, DMSO was used in an amount equal to the amount added in accordance with the addition concentration of the highest-concentration compound. The number of cells at each concentration relative to the control was expressed as a percentage. In Table 3, the turbidities of the compounds are also indicated.
# (§2) GO-Y198, GO-Y199, and GO-Y200 against malignant pleural mesothelioma cell lines NCI-H226 and MSTO211H was measured. The method is as described above. For comparison, the IC50 of cisplatin (CDDP), a cytocidal anticancer agent, is also indicated.
# [2] = system: malignant pleural mesothelioma cell line NCI-H226; experiment: Cell growth inhibitory activity, NCI-H226; type: cell-based; conditions: Table 8
# Experimental: as §1, §2
# [3] = system: pancreatic cancer cell line Panc-1; experiment: Cell growth inhibitory activity, Panc-1; type: cell-based; conditions: Table 7
# Experimental: [The source words this procedure for another cell line and reports this cell line under the same test.] as §1, with “percentage.” for “percentage. In Table 3, the turbidities of the compounds are also indicated.”
# (§3) The method is as described above.
# [4] = system: vascular endothelial cells HUVEC-R resistant to Ki8751; experiment: Angiogenesis inhibitory activity, HUVEC-R; type: cell-based; conditions: Table 11, number of cells after 72 hours
# Experimental: HUVEC-R was cultured in the presence of each compound using an EGMTM-2 Bullet Kit (Takara Bio Inc., Otsu, Japan), and the number of cells was measured after 72 hours. In addition, IC50 was determined from the results.
# [5] = system: cutaneous T-cell lymphoma cell line HH; experiment: Cell growth inhibitory activity, HH; type: cell-based; conditions: Table 10
# Experimental: [The source words this procedure for another cell line and reports this cell line under the same test.] as §1, with “percentage.” for “percentage. In Table 3, the turbidities of the compounds are also indicated.”
# as §3
# [6] = system: colorectal cancer cell line HCT116; experiment: Cell growth inhibitory activity, HCT116; type: cell-based
# Experimental: as §1, with “percentage.” for “percentage. In Table 3, the turbidities of the compounds are also indicated.”
# as §3
# (§4) The cell growth inhibitory activity (IC50) of each of curcumin, GO-Y199, and GO-Y206 against the colorectal cancer cell lines DLD-1 and HCT116 and the gastric cancer cell lines KATO III and H-111-TC was measured. The method is as described above.
# [7] = system: cutaneous T-cell lymphoma cell line HUT78; experiment: Cell growth inhibitory activity, HUT78; type: cell-based; conditions: Table 10
# Experimental: [The source words this procedure for another cell line and reports this cell line under the same test.] as §1, with “percentage.” for “percentage. In Table 3, the turbidities of the compounds are also indicated.”
# as §3
# [8] = Turbidity measurement; type: physicochemical; conditions: for Turbidity (Relative Value): Table 3, relative to curcumin = 1
# Experimental: The turbidity of various compounds was measured. The method is as follows. […] Curcumin was cloudy while GO-Y199 was clear. The solubility was measured with a turbidimeter (WZB-170 Portable Turbidimeter available from REX). The turbidity of the compound was corrected for concentration.
# Subsequently, GO-Y206 and curcumin were adjusted to final concentrations of 1.25 μM and 5.00 μM, respectively, and their turbidities were measured.
# [9] = system: pancreatic cancer cell line ASPC-1; experiment: Cell growth inhibitory activity, ASPC-1; type: cell-based; conditions: Table 7
# Experimental: [The source words this procedure for another cell line and reports this cell line under the same test.] as §1, with “percentage.” for “percentage. In Table 3, the turbidities of the compounds are also indicated.”
# as §3
# [10] = system: gastric cancer cell line KATO III; experiment: Cell growth inhibitory activity, KATO III; type: cell-based; conditions: Table 6, read-out: IC50 (μM) KATO III
# Experimental: as §1, with “percentage.” for “percentage. In Table 3, the turbidities of the compounds are also indicated.”
# as §3, §4
# [11] = system: colorectal cancer cell line DLD-1; experiment: Cell growth inhibitory activity, DLD-1; type: cell-based
# Experimental: as §1, with “percentage.” for “percentage. In Table 3, the turbidities of the compounds are also indicated.”
# as §3, §4
# [12] = system: gastric cancer cell line H-111-TC; experiment: Cell growth inhibitory activity, H-111-TC; type: cell-based; conditions: Table 6
# Experimental: as §1
# as §4, with “above. FIG. 8 indicates the results of cell growth inhibitory activity of these compounds against various cancer cell lines.” for “above.”
# [13] = system: gastric cancer cell line GCIY; experiment: Cell growth inhibitory activity, GCIY; type: cell-based; conditions: Homo sapiens, GCIY; Table 4; 72 hours
# Experimental: [The source words this procedure for another cell line and reports this cell line under the same test.] as §1, with “percentage.” for “percentage. In Table 3, the turbidities of the compounds are also indicated.”
# as §3
# [14] = system: gastric cancer cell line SH-10-TC; experiment: Cell growth inhibitory activity, SH-10-TC; type: cell-based; conditions: SH-10-TC; Table 4; 72 hours
# Experimental: [The source words this procedure for another cell line and reports this cell line under the same test.] as §1, with “percentage.” for “percentage. In Table 3, the turbidities of the compounds are also indicated.”
# as §3
# [15] = system: malignant melanoma cell line G361; experiment: Cell growth inhibitory activity, G361; type: cell-based; conditions: Table 9
# Experimental: [The source words this procedure for another cell line and reports this cell line under the same test.] as §1, with “percentage.” for “percentage. In Table 3, the turbidities of the compounds are also indicated.”
# as §3
# [16] = Table 3, HCT116, cell count after 72 hours of culture vs DMSO control, read-out: IC50
# [17] = Table 1, average turbidity corrected for final concentration (1.7-170 μm, per compound)
# [18] = Table 1, turbidity/μm relative to curcumin = 1
# [19] = Table 2, value in parentheses, relative to curcumin = 1.00
compound,measurement,setting,value
COCOc1cc(/C=C/C(=O)CC(SCCOCCOCCOCCOCc2cn([C@@H]3O[C@H](CO)[C@@H](O[C@H]4O[C@H](CO)[C@@H](O)[C@H](O)[C@H]4O)[C@H](O)[C@H]3O)nn2)c2cc(OCOC)cc(OCOC)c2)cc(OCOC)c1 (stereo partly shown) [GO-Y200],IC50,[1],4.5 µM
same,IC50,[2],4.7 µM
same,IC50,[3],0.91 µM
same,IC50,[4],1.3 µM
same,IC50,[5],1.31 µM
same,IC50,[6]; [16],0.42 µM
same,IC50,[7],0.91 µM
same,Turbidity/μm,[8]; [17],0 NTU/μM
same,Relative Value (turbidity),[8]; [18],0
same,Turbidity (Relative Value),[8],0
same,Ave Turbidity (NTU),[8]; final conc. 8.3 μm in DDW,0 NTU
same,IC50,[9],1.33 µM
COCOc1cc(C=CC(=O)CC(SCCOCCOCCOCCOCc2cn(C3CC(O)C(O)C(CO)O3)nn2)c2cc(OCOC)cc(OCOC)c2)cc(OCOC)c1 (mixture of isomers) [GO-Y206],IC50,[10],3.11 µM
same,IC50,"[11]; Table 6, read-out: IC50 (μM) DLD-1",1.21 µM
same,IC50,"[6]; Table 6, read-out: IC50 (μM) HCT116",0.91 µM
same,IC50,[12],4.67 µM
same,Turbidity/μm,"[8]; Table 2, final conc. 1.25 μM",0.144 NTU/μM
same,Turbidity (NTU),"[8]; Table 2, final conc. 5.0 μM",1.82 NTU
same,Turbidity/μm,"[8]; Table 2, final conc. 5.0 μM",0.364 NTU/μM
same,Relative Value (turbidity),[8]; [19],(0.052)
same,turbidity as percent of curcumin,[8]; from averaged NTU/μM,5%
COCOc1cc(C=CC(=O)CC(SCCOCCOCCOCCOCc2cn(CCCOC(=O)CCCCC3SCC4NC(=O)NC43)nn2)c2cc(OCOC)cc(OCOC)c2)cc(OCOC)c1 (mixture of isomers) [GO-Y195],IC50,[6]; [16],1.8 µM
COCOc1cc(/C=C/C(=O)CC(SCCOCCOCCOCCOCc2cn([C@H]3O[C@H](CO)[C@@H](O)[C@H](O)[C@@H]3O)nn2)c2cc(OCOC)cc(OCOC)c2)cc(OCOC)c1 (stereo partly shown) [GO-Y198],IC50,[1],0.9 µM
same,IC50,[2],4.2 µM
same,IC50,[4],1.08 µM
same,IC50,[5],1.15 µM
same,IC50,[6]; [16],0.44 µM
same,IC50,[7],0.51 µM
same,Turbidity/μm,[8]; [17],0 NTU/μM
same,Relative Value (turbidity),[8]; [18],0
same,Turbidity (Relative Value),[8],0
same,Ave Turbidity (NTU),[8]; final conc. 8.3 μm in DDW,0 NTU
"COc1cc(/C=C/C(=O)CC(=O)/C=C/c2ccc(O)c(OC)c2)ccc1O [curcumin, reference compound]",IC50,[13],8.66 µM
same,IC50,[14],8.07 µM
same,IC50,"[10]; Homo sapiens, KATO III",11 µM
same,IC50,"[1]; Homo sapiens, MSTO-211H",33.7 µM
same,IC50,"[2]; Homo sapiens, NCI-H226",15.1 µM
same,IC50,"[11]; Homo sapiens, DLD-1, Table 4, 72 hours, read-out: IC50 DLD-1",18.7 µM
same,IC50,"[11]; Homo sapiens, DLD-1, Table 6, read-out: IC50 (μM) DLD-1",44.8 µM
same,IC50,"[3]; Homo sapiens, PANC-1",29.2 µM
same,IC50,[4]; Endothelial cell,11.9 µM
same,IC50,[5]; T-cell,18.1 µM
same,IC50,"[6]; Homo sapiens, HCT-116, read-out: IC50 HCT-116, Table 4, 72 hours",16 µM
same,IC50,"[6]; Homo sapiens, HCT-116, Table 3, HCT116, cell count after 72 hours of culture vs DMSO control, read-out: IC50",16 µM
same,IC50,"[6]; Homo sapiens, HCT-116, Table 6, read-out: IC50 (μM) HCT116",7.08 µM
same,IC50,"[7]; Homo sapiens, HuT78",9.01 µM
same,IC50,[12],> 50 µM
same,IC50,"[15]; Homo sapiens, G-361",16.8 µM
same,Turbidity/μm,[8]; [17],0.29 NTU/μM
same,Relative Value (turbidity),[8]; [18],1
same,Turbidity (NTU),"[8]; Table 2, final conc. 1.25 μM",4.96 NTU
same,Turbidity/μm,"[8]; Table 2, final conc. 1.25 μM",3.968 NTU/μM
same,Turbidity (NTU),"[8]; Table 2, final conc. 5.0 μM",29.0 NTU
same,Turbidity/μm,"[8]; Table 2, final conc. 5.0 μM",5.8 NTU/μM
same,Relative Value (turbidity),[8]; [19],(1.00)
same,Turbidity (Relative Value),[8],1
same,appearance of solution,"[8]; final concentration 50 μM in distilled water or DMEM with 10% fetal bovine serum, from DMSO",cloudy
same,IC50,"[9]; Homo sapiens, ASPC1",18.5 µM
COCOc1cc(/C=C/C(=O)CC(SCCOCCOCCOCCOCc2cn(CCCO)nn2)c2cc(OCOC)cc(OCOC)c2)cc(OCOC)c1 (racemic) [GO-Y194],IC50,[6]; [16],0.5 µM
"COc1cc(/C=C/C(=O)/C=C/c2ccc(O)c(OC)c2)ccc1O [GO-Y022, reference compound]",IC50,[3],6.67 µM
same,IC50,[4],4.7 µM
same,IC50,[5],9.16 µM
same,IC50,[6]; [16],2.02 µM
same,IC50,[7],4.03 µM
same,IC50,[15],3.1 µM
same,Turbidity/μm,[8]; [17],0.014 NTU/μM
same,Relative Value (turbidity),[8]; [18],0.048
same,Turbidity (Relative Value),[8],0.048
same,Ave Turbidity (NTU),[8]; final conc. 8.3 μm in DDW,0.12 ± 0.0094 NTU
same,IC50,[9],8.52 µM
COCOc1cc(C=CC(=O)CC(SCCOCCOCCOCCOCc2cn(C3OC(CO)C(O)C(O)C3O)nn2)c2cc(OCOC)cc(OCOC)c2)cc(OCOC)c1 (mixture of isomers) [GO-Y196],IC50,[6]; [16],0.67 µM
same,Turbidity/μm,[8]; [17],0 NTU/μM
same,Relative Value (turbidity),[8]; [18],0
same,Turbidity (Relative Value),[8],0
same,Ave Turbidity (NTU),[8]; final conc. 8.3 μm in DDW,0 NTU
COCOc1cc(/C=C/C(=O)CC(SCCOCCOCCOCCOCc2cn([C@H]3O[C@@H](CO)[C@H](O)[C@@H](O)[C@@H]3O)nn2)c2cc(OCOC)cc(OCOC)c2)cc(OCOC)c1 (stereo partly shown) [GO-Y197],IC50,[1],3.9 µM
same,IC50,[2],4 µM
same,IC50,[4],0.96 µM
same,IC50,[5],1.11 µM
same,IC50,[6]; [16],0.7 µM
same,IC50,[7],0.81 µM
same,IC50,[15],1.1 µM
same,Turbidity/μm,[8]; [17],0 NTU/μM
same,Relative Value (turbidity),[8]; [18],0
same,Turbidity (Relative Value),[8],0
same,Ave Turbidity (NTU),[8]; final conc. 8.3 μm in DDW,0 NTU
"COCOc1cc(/C=C/C(=O)/C=C/c2cc(OCOC)cc(OCOC)c2)cc(OCOC)c1 [GO-Y030, (1E,4E)-1,5-bis-[3,5-bis(methoxymethoxy)phenyl]pentadiene-3-one, reference compound]",Turbidity/μm,[8]; [17],2.68 NTU/μM
same,Ave Turbidity (NTU),[8]; final conc. 17 μm in DDW,45.6 ± 0.21 NTU
same,Turbidity (NTU),"[8]; individual measurements, final conc. 170 μm, DMSO stock diluted in 30 mL DDW",over limit
"COCOc1cc(/C=C/C(=O)CC(SCC(=O)OC)c2cc(OCOC)cc(OCOC)c2)cc(OCOC)c1 (racemic) [GO-Y136, reference compound]",IC50,[6]; [16],0.89 µM
same,Turbidity/μm,[8]; [17],0.024 NTU/μM
same,Relative Value (turbidity),[8]; [18],0.083
same,Turbidity (Relative Value),[8],0.083
same,Ave Turbidity (NTU),[8]; final conc. 1.7 μm in DDW,0.04 ± 0.0082 NTU
